Patent publication US20250179047A1, “5-[7-(3,4-DIHYDRO-1H-ISOQUINOLINE-2-CARBONYL)-1,2,3,4 TETRAHYDROISOQUINOLIN-6-YL]-1H-PYRROLE-3-CARBOXAMIDE DERIVATIVES, PHARMACEUTICAL COMPOSITIONS CONTAINING THEM AND THEIR USES AS PRO-APOPTOTIC AGENTS” (LES LABORATOIRES SERVIER, priority 2022, published 2025)

What was measured:
[1] = system: KMS12PE Bcl2 WT; assay: In vitro cytotoxicity CellTiterGlo 72 h, KMS12PE Bcl2 WT; format: cell-based; conditions: Homo sapiens, KMS-12-PE, read-out: C50 nM, KMS12PE Bcl2 WT
Experimental: (§1) KMS-12-PE (ACC 606) were purchased from the Leibniz-Institute DSMZ (Braunschweig, Germany) and were grown at 37° C. in a humidified atmosphere with 5% CO2 in media recommended by the suppliers. Lentiviral particles containing Bcl-2 wild type (also named “Bcl2 WT”), Bcl-2 mutated on G101V (also named “Bcl2 G101V”), Bcl-2 mutated on D103Y (also named “Bcl2 D103Y”), Bcl-2 mutated on D103V (also named “Bcl2 D103V”), Bcl-2 mutated on D103E (also named “Bcl2 D103E”), Bcl-2 mutated on F104I (also named “Bcl2 F104I”), Bcl-2 mutated on F104L (also named “Bcl2 F104L”), Bcl-2 mutated on D111A (also named “Bcl2 D111A”), Bcl-2 mutated on A113G (also named “Bcl2 A113G”), Bcl-2 mutated on R129L (also named “Bcl2 R129L”), Bcl-2 mutated on V156D (also named “Bcl2 V156D”) were cloned into pcLV-CMV-DEST-IRES-TagRFP. Lentiviral particles (1×10^6) were mixed with Polybrene at 8 μg/ml and transduced by spinoculation for 1 h at 32° C. and incubated overnight. After 8 days, TagRFP positive-cells were sorted by FACS. BCL2 expression was monitored by immunoblotting using anti-Flag and anti-BCL2 antibodies. Cells were seeded into 96-wells plates and treated with 1:3.16 serial dilution of compounds (9 different concentrations). Cell viability was assessed using CellTiterGlo reagent following treatment for 72 h. Results were normalized to the viability of cells without compounds (control wells). The C50 values were calculated using nonlinear regression algorithms in XCell software.

[2] = molecular target: BCL2 WT (Homo sapiens (Human), UniProt P10415); assay: TR-FRET competitive binding assay, BCL2 WT; conditions: Ki determined from IC50, read-out: TR_FRET EKI_Bcl2 WT
BCL2 WT, sequence (P10415 other isoform, or with tags, fused parts or gaps): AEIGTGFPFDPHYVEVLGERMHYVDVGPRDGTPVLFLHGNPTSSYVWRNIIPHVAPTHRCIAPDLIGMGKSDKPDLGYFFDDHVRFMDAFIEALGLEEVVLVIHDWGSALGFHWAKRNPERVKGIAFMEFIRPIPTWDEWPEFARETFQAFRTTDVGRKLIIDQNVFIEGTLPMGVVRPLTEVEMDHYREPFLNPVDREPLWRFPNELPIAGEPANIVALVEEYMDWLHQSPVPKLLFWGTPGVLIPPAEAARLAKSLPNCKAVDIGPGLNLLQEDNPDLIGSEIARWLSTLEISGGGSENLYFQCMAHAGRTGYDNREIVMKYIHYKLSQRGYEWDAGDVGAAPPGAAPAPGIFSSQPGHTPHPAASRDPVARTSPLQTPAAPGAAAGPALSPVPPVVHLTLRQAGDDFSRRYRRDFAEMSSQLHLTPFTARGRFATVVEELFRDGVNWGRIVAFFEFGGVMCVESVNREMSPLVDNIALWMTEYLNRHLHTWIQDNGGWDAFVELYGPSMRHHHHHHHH
Procedure, shortened: (§2)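 Competitive TR-FRET displacement of fluorescein-PUMA peptide (2 or 20 nM) from 0.5 nM terbium-labelled N-terminal Halo-fusion BCL2 (1-207, wild type or mutant) or BCLXL (2-196), expressed in E. coli. Buffer 50 mM Hepes pH 7.5, 150 mM NaCl, 5% DMSO; 2 h at 23°C. 520/495 nm ratio fitted over 11 points for IC50, converted to Ki.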

[3] = molecular target: BCLXL WT (Homo sapiens (Human), UniProt Q07817); assay: TR-FRET competitive binding assay, BCLXL WT; conditions: for Ki: BCLXL WT, Ki determined from IC50, read-out: TR_FRET EKI BclxL; for TR_FRET EKI BCLxL/WT selectivty ratio: ratio Ki BCLxL / Ki BCL2 WT
BCLXL WT, sequence (Q07817 other isoform, or with tags, fused parts or gaps): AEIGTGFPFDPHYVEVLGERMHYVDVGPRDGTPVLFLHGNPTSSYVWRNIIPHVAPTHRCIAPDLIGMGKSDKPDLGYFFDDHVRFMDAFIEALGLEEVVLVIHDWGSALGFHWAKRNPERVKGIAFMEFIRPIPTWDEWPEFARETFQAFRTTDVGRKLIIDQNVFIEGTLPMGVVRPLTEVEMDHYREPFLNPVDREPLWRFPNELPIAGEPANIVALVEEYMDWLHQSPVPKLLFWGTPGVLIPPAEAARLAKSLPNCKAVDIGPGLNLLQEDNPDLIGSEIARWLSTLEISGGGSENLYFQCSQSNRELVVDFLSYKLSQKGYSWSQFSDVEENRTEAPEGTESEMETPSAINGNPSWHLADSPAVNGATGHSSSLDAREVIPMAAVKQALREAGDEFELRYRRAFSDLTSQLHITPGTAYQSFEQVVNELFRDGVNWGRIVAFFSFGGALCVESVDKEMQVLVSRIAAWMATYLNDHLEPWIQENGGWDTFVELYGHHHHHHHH
Procedure, shortened: as §2

[4] = molecular target: BCL2 D103Y (Homo sapiens, UniProt P10415, D103Y); assay: TR-FRET competitive binding assay, BCL2 D103Y; conditions: Ki determined from IC50, read-out: TR_FRET EKI_Bcl2 D103Y
Procedure, shortened: as §2

[5] = system: KMS12PE Bcl2 F104I; assay: In vitro cytotoxicity CellTiterGlo 72 h, KMS12PE Bcl2 F104I; format: cell-based; conditions: Homo sapiens, KMS-12-PE, read-out: C50 nM, KMS12PE Bcl2 F104I
Experimental: as §1

[6] = system: KMS12PE Bcl2 D103V; assay: In vitro cytotoxicity CellTiterGlo 72 h, KMS12PE Bcl2 D103V; format: cell-based; conditions: Homo sapiens, KMS-12-PE, read-out: C50 nM, KMS12PE Bcl2 D103V
Experimental: as §1

[7] = molecular target: BCL2 D111A (Homo sapiens, UniProt P10415, D111A); assay: TR-FRET competitive binding assay, BCL2 D111A; conditions: Ki determined from IC50, read-out: TR_FRET EKI_Bcl2 D111A
Procedure, shortened: as §2

[8] = system: KMS12PE Bcl2 D111A; assay: In vitro cytotoxicity CellTiterGlo 72 h, KMS12PE Bcl2 D111A; format: cell-based; conditions: Homo sapiens, KMS-12-PE, read-out: C50 nM, KMS12PE Bcl2 D111A
Experimental: as §1

[9] = system: KMS12PE Bcl2 F104L; assay: In vitro cytotoxicity CellTiterGlo 72 h, KMS12PE Bcl2 F104L; format: cell-based; conditions: Homo sapiens, KMS-12-PE, read-out: C50 nM, KMS12PE Bcl2 F104L
Experimental: as §1

| Ki [2] [nM] | Ki [3] [nM] | TR_FRET EKI BCLxL/WT selectivty ratio [3] | Ki [4] [nM] | Ki [7] [nM] | Compound | IC50 [1] [nM] | IC50 [5] [nM] | IC50 [6] [nM] | IC50 [8] [nM] | IC50 [9] [nM] |
| --- | --- | --- | --- | --- | --- | --- | --- | --- | --- | --- |
| 0.08 | 4 | 47.6 | 0.23 | 0.23 | Cc1c(N(C(=O)c2cc(-c3cc4c(cc3C(=O)N3Cc5ccccc5C[C@H]3CN3CCCCC3)CN(C(=O)Cc3ccc(OCCC5CCOCC5)cc3)CC4)n(C)c2C)c2ccc(O)cc2)cc(C#N)n1C [Example 66, N-(5-cyano-1,2-dimethylpyrrol-3-yl)-N-(4-hydroxyphenyl)-1,2-dimethyl-5-[2-(2-{4-[2-(oxan-4-yl)ethoxy]phenyl}acetyl)-7-{[(3S)-3-(piperidin-1-ylmethyl)-3,4-dihydro-1H-isoquinolin-2-yl]carbonyl}-3,4-dihydro-1H-isoquinolin-6-yl]pyrrole-3-carboxamide] | 1.74 | 65.2 | 2.22 | 1.57 | 24.1 |
| 0.06 | 8 | 135.6 | 0.14 | 0.2 | Cc1c(C(=O)N(c2ccc(O)cc2)c2cc(C#N)n(C(F)F)c2C)cc(-c2cc3c(cc2C(=O)N2Cc4ccccc4C[C@H]2CN2CCCCC2)CN(C(=O)Cc2ccc(OCCN4CCOCC4)cc2)CC3)n1C [Example 77] | 4.75 | 156 | 6.28 | 3.64 | 31.9 |
| 0.05 | 7.1 | 134.0 | 0.14 | 0.26 | Cc1c(C(=O)N(c2ccc(O)cc2)c2cc(C#N)n(C(F)F)c2C)cc(-c2cc3c(cc2C(=O)N2Cc4ccccc4C[C@H]2CN2CCCCC2)CN(C(=O)Cc2ccc(OCCN4CCOCC4)cc2F)CC3)n1C [Example 78, N-[5-cyano-1-(difluoromethyl)-2-methylpyrrol-3-yl]-5-[2-(2-{2-fluoro-4-[2-(morpholin-4-yl)ethoxy]phenyl}acetyl)-7-{[(3S)-3-(piperidin-1-ylmethyl)-3,4-dihydro-1H-isoquinolin-2-yl]carbonyl}-3,4-dihydro-1H-isoquinolin-6-yl]-N-(4-hydroxyphenyl)-1,2-dimethylpyrrole-3-carboxamide] | 1.41 | 21.8 | 1.59 | 1.14 | 8.71 |
| 0.09 | 7.8 | 87.6 | 0.32 | 0.22 | Cc1c(N(C(=O)c2cc(-c3cc4c(cc3C(=O)N3Cc5ccccc5C[C@H]3CN3CCC[C@H](C)C3)CN(C(=O)Cc3ccc(OCCN5CCOCC5)cc3F)CC4)n(C)c2C)c2ccc(O)cc2)cc(C#N)n1C [Example 107] | 1.59 | 23.6 | 1.94 | 1.36 | 7.04 |
